Laboratory results reported in the NIST ThermoML archive (doi:10.1016/j.fluid.2009.08.011).
Numbers after ± are expanded uncertainties.

Assay: cn = amount concentration of the nth substance listed, in mol/dm3
Settings: 101 kPa, Liquid, Alternating current cell with electrodes

CCCCn1cc[n+](C)c1.[Br-] [1-butyl-3-methylimidazolium bromide] + O
molar conductivity (298.15 K, c1 = 0.0004937): 0.0131 ± 0.0013 S·m2/mol
molar conductivity (298.15 K, c1 = 0.0008655): 0.0131 ± 0.0013 S·m2/mol
molar conductivity (298.15 K, c1 = 0.001621): 0.013 ± 0.0013 S·m2/mol
molar conductivity (298.15 K, c1 = 0.002706): 0.0129 ± 0.0013 S·m2/mol
molar conductivity (298.15 K, c1 = 0.003761): 0.0128 ± 0.0013 S·m2/mol
molar conductivity (298.15 K, c1 = 0.005815): 0.0126 ± 0.0013 S·m2/mol
molar conductivity (298.15 K, c1 = 0.008089): 0.0125 ± 0.0013 S·m2/mol
molar conductivity (298.15 K, c1 = 0.01047): 0.0123 ± 0.0012 S·m2/mol
molar conductivity (298.15 K, c1 = 0.01259): 0.0122 ± 0.0012 S·m2/mol
molar conductivity (308.15 K, c1 = 0.0004882): 0.0137 ± 0.0014 S·m2/mol
molar conductivity (308.15 K, c1 = 0.00104): 0.0135 ± 0.0014 S·m2/mol
molar conductivity (308.15 K, c1 = 0.001567): 0.0135 ± 0.0013 S·m2/mol
molar conductivity (308.15 K, c1 = 0.001953): 0.0134 ± 0.0013 S·m2/mol
molar conductivity (308.15 K, c1 = 0.002955): 0.0132 ± 0.0013 S·m2/mol
molar conductivity (308.15 K, c1 = 0.00388): 0.0131 ± 0.0013 S·m2/mol
molar conductivity (308.15 K, c1 = 0.004882): 0.0129 ± 0.0013 S·m2/mol
molar conductivity (308.15 K, c1 = 0.006552): 0.0128 ± 0.0013 S·m2/mol
molar conductivity (308.15 K, c1 = 0.008273): 0.0127 ± 0.0013 S·m2/mol
molar conductivity (308.15 K, c1 = 0.009904): 0.0125 ± 0.0013 S·m2/mol
molar conductivity (308.15 K, c1 = 0.01206): 0.0124 ± 0.0012 S·m2/mol
molar conductivity (318.15 K, c1 = 0.000457): 0.015 ± 0.0015 S·m2/mol
molar conductivity (318.15 K, c1 = 0.001096): 0.0148 ± 0.0015 S·m2/mol
molar conductivity (318.15 K, c1 = 0.001486): 0.0147 ± 0.0015 S·m2/mol
molar conductivity (318.15 K, c1 = 0.002393): 0.0143 ± 0.0014 S·m2/mol
molar conductivity (318.15 K, c1 = 0.003324): 0.014 ± 0.0014 S·m2/mol
molar conductivity (318.15 K, c1 = 0.004652): 0.0138 ± 0.0014 S·m2/mol
molar conductivity (318.15 K, c1 = 0.006235): 0.0134 ± 0.0013 S·m2/mol
molar conductivity (318.15 K, c1 = 0.008073): 0.0131 ± 0.0013 S·m2/mol
molar conductivity (318.15 K, c1 = 0.009991): 0.0129 ± 0.0013 S·m2/mol
molar conductivity (318.15 K, c1 = 0.012): 0.0126 ± 0.0013 S·m2/mol
molar conductivity (318.15 K, c1 = 0.0138): 0.0124 ± 0.0012 S·m2/mol
molar conductivity (328.15 K, c1 = 0.00043): 0.0158 ± 0.0016 S·m2/mol
molar conductivity (328.15 K, c1 = 0.000847): 0.0157 ± 0.0016 S·m2/mol
molar conductivity (328.15 K, c1 = 0.001805): 0.0154 ± 0.0015 S·m2/mol
molar conductivity (328.15 K, c1 = 0.002719): 0.0152 ± 0.0015 S·m2/mol
molar conductivity (328.15 K, c1 = 0.003628): 0.015 ± 0.0015 S·m2/mol
molar conductivity (328.15 K, c1 = 0.005125): 0.0147 ± 0.0015 S·m2/mol
molar conductivity (328.15 K, c1 = 0.006801): 0.0144 ± 0.0014 S·m2/mol
molar conductivity (328.15 K, c1 = 0.008998): 0.014 ± 0.0014 S·m2/mol
molar conductivity (328.15 K, c1 = 0.01111): 0.0136 ± 0.0014 S·m2/mol
molar conductivity (328.15 K, c1 = 0.01358): 0.0132 ± 0.0013 S·m2/mol

CCCCn1cc[n+](C)c1.[Cl-] [1-butyl-3-methylimidazolium chloride] + O
molar conductivity (298.15 K, c1 = 0.0004271): 0.0109 ± 0.0011 S·m2/mol
molar conductivity (298.15 K, c1 = 0.0009378): 0.0108 ± 0.0011 S·m2/mol
molar conductivity (298.15 K, c1 = 0.001755): 0.0107 ± 0.0011 S·m2/mol
molar conductivity (298.15 K, c1 = 0.002553): 0.0106 ± 0.0011 S·m2/mol
molar conductivity (298.15 K, c1 = 0.002999): 0.0106 ± 0.0011 S·m2/mol
molar conductivity (298.15 K, c1 = 0.003835): 0.0105 ± 0.0011 S·m2/mol
molar conductivity (298.15 K, c1 = 0.004438): 0.0104 ± 0.001 S·m2/mol
molar conductivity (298.15 K, c1 = 0.004986): 0.0104 ± 0.001 S·m2/mol
molar conductivity (298.15 K, c1 = 0.005608): 0.0103 ± 0.001 S·m2/mol
molar conductivity (298.15 K, c1 = 0.006388): 0.0103 ± 0.001 S·m2/mol
molar conductivity (298.15 K, c1 = 0.007112): 0.0102 ± 0.001 S·m2/mol
molar conductivity (298.15 K, c1 = 0.008217): 0.0101 ± 0.001 S·m2/mol
molar conductivity (298.15 K, c1 = 0.008932): 0.0101 ± 0.001 S·m2/mol
molar conductivity (298.15 K, c1 = 0.009777): 0.00999 ± 0.001 S·m2/mol
molar conductivity (298.15 K, c1 = 0.01041): 0.00996 ± 0.001 S·m2/mol
molar conductivity (298.15 K, c1 = 0.01119): 0.00983 ± 0.00098 S·m2/mol
molar conductivity (298.15 K, c1 = 0.01216): 0.00978 ± 0.00098 S·m2/mol
molar conductivity (298.15 K, c1 = 0.01304): 0.00968 ± 0.00097 S·m2/mol
molar conductivity (298.15 K, c1 = 0.01389): 0.00962 ± 0.00096 S·m2/mol
molar conductivity (308.15 K, c1 = 0.0006735): 0.0111 ± 0.0011 S·m2/mol
molar conductivity (308.15 K, c1 = 0.001508): 0.011 ± 0.0011 S·m2/mol
molar conductivity (308.15 K, c1 = 0.002241): 0.011 ± 0.0011 S·m2/mol
molar conductivity (308.15 K, c1 = 0.002432): 0.0109 ± 0.0011 S·m2/mol
molar conductivity (308.15 K, c1 = 0.003588): 0.0108 ± 0.0011 S·m2/mol
molar conductivity (308.15 K, c1 = 0.004875): 0.0106 ± 0.0011 S·m2/mol
molar conductivity (308.15 K, c1 = 0.006007): 0.0104 ± 0.001 S·m2/mol
molar conductivity (308.15 K, c1 = 0.008219): 0.0103 ± 0.001 S·m2/mol
molar conductivity (308.15 K, c1 = 0.01013): 0.0103 ± 0.001 S·m2/mol
molar conductivity (308.15 K, c1 = 0.01259): 0.0102 ± 0.001 S·m2/mol
molar conductivity (308.15 K, c1 = 0.01457): 0.0101 ± 0.001 S·m2/mol
molar conductivity (308.15 K, c1 = 0.01708): 0.01 ± 0.001 S·m2/mol
molar conductivity (308.15 K, c1 = 0.01958): 0.01 ± 0.001 S·m2/mol
molar conductivity (308.15 K, c1 = 0.02199): 0.00998 ± 0.001 S·m2/mol
molar conductivity (318.15 K, c1 = 0.000681): 0.0119 ± 0.0012 S·m2/mol
molar conductivity (318.15 K, c1 = 0.001635): 0.0117 ± 0.0012 S·m2/mol
molar conductivity (318.15 K, c1 = 0.002388): 0.0113 ± 0.0011 S·m2/mol
molar conductivity (318.15 K, c1 = 0.003429): 0.0111 ± 0.0011 S·m2/mol
molar conductivity (318.15 K, c1 = 0.004391): 0.0109 ± 0.0011 S·m2/mol
molar conductivity (318.15 K, c1 = 0.006618): 0.0107 ± 0.0011 S·m2/mol
molar conductivity (318.15 K, c1 = 0.008725): 0.0105 ± 0.001 S·m2/mol
molar conductivity (318.15 K, c1 = 0.01078): 0.0103 ± 0.001 S·m2/mol
molar conductivity (318.15 K, c1 = 0.01367): 0.0101 ± 0.001 S·m2/mol
molar conductivity (318.15 K, c1 = 0.01671): 0.00997 ± 0.001 S·m2/mol
molar conductivity (318.15 K, c1 = 0.02016): 0.00981 ± 0.00098 S·m2/mol
molar conductivity (318.15 K, c1 = 0.02295): 0.0097 ± 0.00097 S·m2/mol
molar conductivity (318.15 K, c1 = 0.02493): 0.00962 ± 0.00096 S·m2/mol
molar conductivity (328.15 K, c1 = 0.0006908): 0.0125 ± 0.0012 S·m2/mol
molar conductivity (328.15 K, c1 = 0.0007995): 0.0124 ± 0.0012 S·m2/mol
molar conductivity (328.15 K, c1 = 0.001327): 0.0123 ± 0.0012 S·m2/mol
molar conductivity (328.15 K, c1 = 0.002041): 0.0121 ± 0.0012 S·m2/mol
molar conductivity (328.15 K, c1 = 0.002693): 0.012 ± 0.0012 S·m2/mol
molar conductivity (328.15 K, c1 = 0.004479): 0.0115 ± 0.0011 S·m2/mol
molar conductivity (328.15 K, c1 = 0.006054): 0.0113 ± 0.0011 S·m2/mol
molar conductivity (328.15 K, c1 = 0.007413): 0.0111 ± 0.0011 S·m2/mol
molar conductivity (328.15 K, c1 = 0.008786): 0.0109 ± 0.0011 S·m2/mol
molar conductivity (328.15 K, c1 = 0.01028): 0.0108 ± 0.0011 S·m2/mol
molar conductivity (328.15 K, c1 = 0.01229): 0.0106 ± 0.0011 S·m2/mol
molar conductivity (328.15 K, c1 = 0.01504): 0.0104 ± 0.001 S·m2/mol
molar conductivity (328.15 K, c1 = 0.01749): 0.0102 ± 0.001 S·m2/mol
